The values that follow come from patent publication US20240190890A1, “MK2 INHIBITORS AND USES THEREOF” (Bristol-Myers Squibb Company, priority 2022, published 2024).

Sequence of p38a activated, mitogen-activated protein kinase-activated protein kinase 2 (MAPKAP-K2 or MK2) enzyme (P49137 whole entry): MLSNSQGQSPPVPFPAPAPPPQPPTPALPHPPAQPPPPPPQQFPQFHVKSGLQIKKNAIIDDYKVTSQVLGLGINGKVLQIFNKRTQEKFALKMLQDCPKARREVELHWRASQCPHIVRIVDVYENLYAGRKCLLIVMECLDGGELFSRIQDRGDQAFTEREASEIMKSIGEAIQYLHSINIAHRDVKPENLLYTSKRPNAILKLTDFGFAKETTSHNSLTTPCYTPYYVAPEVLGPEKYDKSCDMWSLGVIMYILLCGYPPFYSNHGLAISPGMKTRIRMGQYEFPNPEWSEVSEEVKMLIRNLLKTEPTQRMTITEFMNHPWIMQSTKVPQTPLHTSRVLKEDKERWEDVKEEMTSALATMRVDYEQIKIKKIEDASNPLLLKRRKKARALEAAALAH

For this assay, the target named is p38a activated, mitogen-activated protein kinase-activated protein kinase 2 (MAPKAP-K2 or MK2) enzyme (Homo sapiens (Human), UniProt P49137). Kind of assay: MK2 Omnia continuous-read kinase assay for compound potency. In kind it is biochemical. The note with it: [MK-2]=0.4 nM, [ATP]=10 μM, [ST3-Sox]=10 μM; room temperature. The source says: Mitogen-Activated Protein Kinase-Activated Protein Kinase 2 Omnia® Assay for Compound Potency Assessment:
The protocol below describes a continuous-read kinase assay optimized to measure potency of compounds against p38a activated, mitogen-activated protein kinase-activated protein kinase 2 (MAPKAP-K2 or MK2) enzyme. Further details of this assay are described by Life Technologies, Carlsbad, CA on their website at the following URL: http://tools.lifetechnologies.com/content/sfs/manuals/omnia_kinase_assay_man.pdf. • [Reagent] used: • [MK-2]=0.4 nM, • [ATP]=10 μM and • [ST3-Sox]=10 μM (ATP^appKM=10 μM)
Briefly, 10× stock solutions of MK2 (PV3317, from Life Technologies), 1.13X ATP (AS001A), and Sox conjugated peptide substrate, S/T3-Sox, (KZN1031) were prepared in 1× kinase reaction buffer consisting of 20 mM Tris, pH 7.5, 5 mM MgCl2, 1 mM EGTA, 5 mM β-glycerophosphate, 5% glycerol (10× stock, KB001A) and 0.2 mM DTT (DS001A). Enzyme solution (5 μL) was added to each of DMSO ([…]) or serially diluted test compounds prepared in DMSO in a Corning (#3574) 384-well, white, non-binding surface microtiter plate (Corning, NY). Kinase reactions were started with the addition of 45 μL of the ATP-peptide substrate S/T3-Sox mix and monitored every 71 seconds for 120 minutes at λex360/λem485 in a Synergy H4 plate reader from BioTek (Winooski, VT) at room temperature.
Background signals from the no enzyme control wells were subtracted from all progress curves. The initial linear portions of the net progress curves were fit according to a linear equation to yield the slope and percentage of inhibition (% inhibition) at each compound concentration. The net progress curves obtained during the first two hours of reactions were also fit according to an ascending single-exponential equation (Eq. 1) to yield kobs values at each compound concentration. Plots of % Inhibition versus inhibitor concentrations were fit according to a dose-response equation (Eq. 2) to generate IC50 and Hill slope values while plots of kobs versus inhibitor concentration were fit according to Equation 3 (Eq. 3) to generate apparent kinact/K1 values using the GraphPad PRISM software (Version 6.00; GraphPad San Diego, CA).
where F is the fluorescence intensity from the plate reader, V0 is a constant reflecting the relationship between the instrument readout and product concentration, t is time, e is Euler's number, and kobs is the observed inactivation rate constant.
where % Inhibition is percentage of inhibition, IC50 is half maximal inhibitory concentration, [I] is the inhibitor concentration, and n is the Hill slope.
where kobs is the observed inactivation rate constant, kinact is the apparent inactivation rate constant, K1 is the apparent inhibition constant, and [I] is the inhibitor concentration. […] Potency results for the compounds tested are shown in Table 4 in the column entitled “MK2 IC50.”
Consider `C#Cc1cc(-c2ccc3c(ccc4sc5c(c43)NC[C@@H](C)NC5=O)n2)nc(CO)n1` [Example I-78, (R)-3-(6-ethynyl-2-(hydroxymethyl)pyrimidin-4-yl)-10-methyl-9,10,11,12-tetrahydro-8H-[1,4]diazepino[5′,6′:4,5]thieno[3,2-f]quinolin-8-one], for which the IC50 (commonly the midpoint of a concentration-inhibition curve) is 1 nM.
The same measure for `C=Cc1cc(-c2ccc3c(ccc4sc5c(c43)NC[C@@H](C)NC5=O)n2)nc(CO)n1` [Example I-76, (R)-3-(2-(hydroxymethyl)-6-vinylpyrimidin-4-yl)-10-methyl-9,10,11,12-tetrahydro-8H-[1,4]diazepino[5′,6′:4,5]thieno[3,2-f]quinolin-8-one]: 1 nM; for `C/C=C/c1ncc(COCC)c(-c2ccc3c(ccc4sc5c(c43)NC[C@@H](C)NC5=O)n2)n1` [Example I-48, (R,E)-3-(5-(ethoxymethyl)-2-(prop-1-en-1-yl)pyrimidin-4-yl)-10-methyl-9,10,11,12-tetrahydro-8H-[1,4]diazepino[5′,6′:4,5]thieno[3,2-f]quinolin-8-one]: 371 nM; for `C=Cc1cc(-c2ccc3c(ccc4sc5c(c43)NC[C@@H](C)NC5=O)n2)nc(N2CCN(C)CC2)n1` [Example I-19, (R)-10-methyl-3-(2-(4-methylpiperazin-1-yl)-6-vinylpyrimidin-4-yl)-9,10,11,12-tetrahydro-8H-[1,4]diazepino[5′,6′:4,5]thieno[3,2-f]quinolin-8-one]: 4 nM.
Turning to `C=Cc1ncc(COC2(C)COC2)c(-c2ccc3c(ccc4sc5c(c43)NC[C@@H](C)NC5=O)n2)n1` [Example I-29, (R)-10-methyl-3-(5-(((3-methyloxetan-3-yl)oxy)methyl)-2-vinylpyrimidin-4-yl)-9,10,11,12-tetrahydro-8H-[1,4]diazepino[5′,6′:4,5]thieno[3,2-f]quinolin-8-one], the IC50 came out at 20 nM.
Consider `C=Cc1cc(-c2ccc3c(ccc4sc5c(c43)NC[C@@H](C)NC5=O)n2)cc(CN2CCN(C)CC2)n1` [Example I-125, (R)-10-methyl-3-(2-((4-methylpiperazin-1-yl)methyl)-6-vinylpyridin-4-yl)-9,10,11,12-tetrahydro-8H-[1,4]diazepino[5′,6′:4,5]thieno[3,2-f]quinolin-8-one], for which the IC50 stood at 2 nM.
The same measure for “(R)-10-methyl-3-(2-(4-methylpiperazin-1-yl)-6-vinylpyridin-4-yl)-9,10,11,12-tetrahydro-8H-[1,4]diazepino[5′,6′:4,5]thieno[3,2-f]quinolin- [Example I-96]”: 10 nM.
With `C=Cc1nccc(-c2ccc3c(ccc4sc5c(c43)NC[C@@H](C)NC5=O)n2)c1C` [Example I-219, (R)-10-methyl-3-(3-methyl-2-vinylpyridin-4-yl)-9,10,11,12-tetrahydro-8H-[1,4]diazepino[5′,6′:4,5]thieno[3,2-f]quinolin-8-one], the IC50 was 142 nM.
The same measure for `[2H]c1c(C=C)ncc(C([2H])([2H])[2H])c1-c1ccc2c(ccc3sc4c(c32)NC[C@@H](C)NC4=O)n1` [Example I-249, (R)-10-methyl-3-(5-(methyl-d3)-2-vinylpyridin-4-yl-3-d)-9,10,11,12-tetrahydro-8H-[1,4]diazepino[5′,6′:4,5]thieno[3,2-f]quinolin-8-one]: 4 nM.
Regarding `CC#Cc1nccc(-c2ccc3c(ccc4sc5c(c43)NC[C@@H](C)NC5=O)n2)n1` [Example I-53, (R)-10-methyl-3-(2-(prop-1-yn-1-yl)pyrimidin-4-yl)-9,10,11,12-tetrahydro-8H-[1,4]diazepino[5′,6′:4,5]thieno[3,2-f]quinolin-8-one], the IC50 came out at 213 nM.
Turning to `C[C@@H]1CNc2c(sc3ccc4nc(-c5cc(Cl)nc(N6CCN(C)CC6)n5)ccc4c23)C(=O)N1` [Example I-17, (R)-3-(6-chloro-2-(4-methylpiperazin-1-yl)pyrimidin-4-yl)-10-methyl-9,10,11,12-tetrahydro-8H-[1,4]diazepino[5′,6′:4,5]thieno[3,2-f]quinolin-8-one], the half-maximal inhibitory concentration (IC50) stood at 137 nM.
Consider `C/C=C/c1cc(-c2ccc3c(ccc4sc5c(c43)NC[C@@H](C)NC5=O)n2)nc(COCC)n1` [Example I-35, (R,E)-3-(2-(ethoxymethyl)-6-(prop-1-en-1-yl)pyrimidin-4-yl)-10-methyl-9,10,11,12-tetrahydro-8H-[1,4]diazepino[5′,6′:4,5]thieno[3,2-f]quinolin-8-one], for which the IC50 was determined as 40 nM.
The same measure for `C=Cc1nn(C)nc1-c1ccc2c(ccc3sc4c(c32)NC[C@@H](C)NC4=O)n1` [Example I-232, (R)-10-methyl-3-(2-methyl-5-vinyl-2H-1,2,3-triazol-4-yl)-9,10,11,12-tetrahydro-8H-[1,4]diazepino[5′,6′:4,5]thieno[3,2-f]quinolin-8-one]: 77 nM; for `C#Cc1cc(-c2ccc3c(ccc4sc5c(c43)NC[C@@H](C)NC5=O)n2)cc(CN2CCC(F)(F)CC2)n1` [Example I-124, (R)-3-(2-((4,4-difluoropiperidin-1-yl)methyl)-6-ethynylpyridin-4-yl)-10-methyl-9,10,11,12-tetrahydro-8H-[1,4]diazepino[5′,6′:4,5]thieno[3,2-f]quinolin-8-one]: 125 nM.
As for `C#Cc1cc(-c2ccc3c(ccc4sc5c(c43)NC[C@@H](C)NC5=O)n2)c(C(F)F)cn1` [Example I-92, (R)-3-(5-(difluoromethyl)-2-ethynylpyridin-4-yl)-10-methyl-9,10,11,12-tetrahydro-8H-[1,4]diazepino[5′,6′:4,5]thieno[3,2-f]quinolin-8-one], the figure is 17 nM; as for `C[C@@H]1CNc2c(sc3ccc4nc(-c5nc(Cl)ncc5COC5CCOCC5)ccc4c23)C(=O)N1` [Example I-24, (R)-3-(2-chloro-5-(((tetrahydro-2H-pyran-4-yl)oxy)methyl)pyrimidin-4-yl)-10-methyl-9,10,11,12-tetrahydro-8H-[1,4]diazepino[5′,6′:4,5]thieno[3,2-f]quinolin-8-one], 98 nM; as for `C[C@@H]1CNc2c(sc3ccc4nc(-c5nc(Cl)c(C(F)(F)F)cc5F)ccc4c23)C(=O)N1` [Example I-274, (R)-3-(6-chloro-3-fluoro-5-(trifluoromethyl)pyridin-2-yl)-10-methyl-9,10,11,12-tetrahydro-8H-[1,4]diazepino[5′,6′:4,5]thieno[3,2-f]quinolin-8-one], 752 nM.
The same measure for `C#Cc1cc(-c2ccc3c(ccc4sc5c(c43)NC[C@@H](C)NC5=O)n2)c(C)nn1` [Example I-170, (R)-3-(6-ethynyl-3-methylpyridazin-4-yl)-10-methyl-9,10,11,12-tetrahydro-8H-[1,4]diazepino[5′,6′:4,5]thieno[3,2-f]quinolin-8-one]: 18 nM.
For `C=Cc1cc(-c2ccc3c(ccc4sc5c(c43)NC[C@@H](C)NC5=O)n2)c(OC)cn1` [Example I-256, (R)-3-(5-methoxy-2-vinylpyridin-4-yl)-10-methyl-9,10,11,12-tetrahydro-8H-[1,4]diazepino[5′,6′:4,5]thieno[3,2-f]quinolin-8-one], the IC50 was 20 nM.
As to `[2H]C([2H])([2H])C(O)c1cnc(C=C)cc1-c1ccc2c(ccc3sc4c(c32)NC[C@@H](C)NC4=O)n1` (stereo partly drawn) [Example I-259, (10R)-3-(5-(1-hydroxyethyl-2,2,2-d3)-2-vinylpyridin-4-yl)-10-methyl-9,10,11,12-tetrahydro-8H-[1,4]diazepino[5′,6′:4,5]thieno[3,2-f]quinolin-8-one], the IC50 was 15 nM.
